According to ChEMBL document CHEMBL4699627, “Synthesis and biological screening of thiosemicarbazones of substituted 3-acetylcoumarins having d-glucose moiety” (Bioorg Med Chem Lett, 2020):
In brackets after ≈: the same amount, converted by molar mass.

What was measured:
Bacillus subtilis = assay: Antibacterial activity against Bacillus subtilis ATCC 11774 assessed as reduction in bacterial growth; assay type: functional
[1] = test system: Staphylococcus epidermidis; assay: Antibacterial activity against Staphylococcus epidermidis ATCC 12228 assessed as reduction in bacterial growth; assay type: functional
Aspergillus flavus = assay: Antifungal activity against Aspergillus flavus ATCC 204304; assay type: functional
Pseudomonas aeruginosa = assay: Antibacterial activity against Pseudomonas aeruginosa ATCC […] assessed as reduction in bacterial growth; assay type: functional
Klebsiella pneumoniae = assay: Antibacterial activity against Klebsiella pneumoniae ATCC 4352 assessed as reduction in bacterial growth; assay type: functional
Escherichia coli = assay: Antibacterial activity against Escherichia coli ATCC 25922 assessed as reduction in bacterial growth; assay type: functional
Salmonella typhimurium = assay: Antibacterial activity against Salmonella typhimurium ATCC 14028 assessed as reduction in bacterial growth; assay type: functional, Salmonella enterica subsp. enterica serovar Typhimurium; conditions: Salmonella enterica
Aspergillus niger = assay: Antifungal activity against Aspergillus niger ATCC 439; assay type: functional
Saccharomyces cerevisiae = assay: Antifungal activity against Saccharomyces cerevisiae SH 20; assay type: functional
Candida albicans = assay: Antifungal activity against Candida albicans ATCC 7754; assay type: functional
Staphylococcus aureus = assay: Antibacterial activity against Staphylococcus aureus ATCC 11632 assessed as reduction in bacterial growth; assay type: functional
[2] = test system: Mycobacterium tuberculosis; assay: Antimycobacterial activity against Mycobacterium tuberculosis H37Ra ATCC 25177 assessed as growth inhibition incubated for 7 days measured after 48 hrs treatment with resazurin by alamarblue assay; assay type: functional; conditions: H37Ra ATCC 25177, 216 h, time 9 day
[3] = test system: Mycobacterium tuberculosis; assay: Antimycobacterial activity against Mycobacterium tuberculosis H37Ra ATCC 25177 assessed as bacterial killing incubated for 4 weeks by CLSI standard plate count method; assay type: functional; conditions: H37Ra ATCC 25177, 672 h
Rhodesain = Rhodesain (Trypanosoma brucei rhodesiense, UniProt Q95PM0); assay: Inhibition of Trypanosoma brucei rhodesiense rhodesain using fluorogenic substrate Z-Phe-Arg-aminomethylcoumarin as substrate by fluorescence assay
Sequence of Rhodesain (Q95PM0 whole entry): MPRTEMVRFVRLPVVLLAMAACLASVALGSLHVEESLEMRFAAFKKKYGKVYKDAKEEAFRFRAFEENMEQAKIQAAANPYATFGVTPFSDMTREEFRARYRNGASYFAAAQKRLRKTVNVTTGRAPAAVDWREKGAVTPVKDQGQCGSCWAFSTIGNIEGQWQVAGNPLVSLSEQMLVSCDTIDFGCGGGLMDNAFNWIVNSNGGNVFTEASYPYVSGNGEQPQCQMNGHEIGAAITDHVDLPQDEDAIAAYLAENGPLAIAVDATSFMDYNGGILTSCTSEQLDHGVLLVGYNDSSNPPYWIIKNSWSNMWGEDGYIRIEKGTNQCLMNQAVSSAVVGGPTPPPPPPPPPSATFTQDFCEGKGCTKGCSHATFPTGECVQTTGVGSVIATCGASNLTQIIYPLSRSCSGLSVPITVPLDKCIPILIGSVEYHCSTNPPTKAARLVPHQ

MDA-MB-231 = assay: Cytotoxicity against human MDA-MB-231 cells incubated for 3 days by MTT assay; assay type: functional, cell-based; conditions: MDA-MB-231, 72 h
PC-3 = assay: Cytotoxicity against human PC-3 cells incubated for 3 days by MTT assay; assay type: functional, cell-based; conditions: PC-3, 72 h

| SMILES | MIC (Bacillus subtilis) | MIC [1] | MIC (Aspergillus flavus) | MIC (Pseudomonas aeruginosa) | MIC (Klebsiella pneumoniae) | MIC (Escherichia coli) | MIC (Salmonella typhimurium) | MIC (Aspergillus niger) | MIC (Saccharomyces cerevisiae) | MIC (Candida albicans) | MIC (Staphylococcus aureus) | also measured |
| --- | --- | --- | --- | --- | --- | --- | --- | --- | --- | --- | --- | --- |
| CC(=O)OC[C@H]1O[C@@H](NC(=S)N/N=C(\C)c2cc3ccccc3oc2=O)[C@H](OC(C)=O)[C@@H](OC(C)=O)[C@@H]1OC(C)=O | > 100 µM | 12.5 µM (≈ 7.39 µg/mL) | 25 µM (≈ 14.8 µg/mL) | 50 µM (≈ 29.6 µg/mL) | 100 µM (≈ 59.2 µg/mL) | 50 µM (≈ 29.6 µg/mL) | 100 µM (≈ 59.2 µg/mL) | > 100 µM | 50 µM (≈ 29.6 µg/mL) | 100 µM (≈ 59.2 µg/mL) | – | – |
| CC(=O)OC[C@H]1O[C@@H](NC(=S)N/N=C(\C)c2cc3cc([N+](=O)[O-])ccc3oc2=O)[C@H](OC(C)=O)[C@@H](OC(C)=O)[C@@H]1OC(C)=O | > 100 µM | 12.5 µM (≈ 7.96 µg/mL) | 100 µM (≈ 63.7 µg/mL) | 1.56 µM (≈ 0.993 µg/mL) | 50 µM (≈ 31.8 µg/mL) | 3.12 µM (≈ 1.99 µg/mL) | 100 µM (≈ 63.7 µg/mL) | 12.5 µM (≈ 7.96 µg/mL) | 25 µM (≈ 15.9 µg/mL) | 25 µM (≈ 15.9 µg/mL) | 12.5 µM (≈ 7.96 µg/mL) | – |
| NC(=S)N/N=C/c1ccc(OC(=O)CC2SC(=O)NC2=O)cc1 (stereo not drawn) | – | – | – | – | – | – | – | – | – | – | – | MIC [2]: 0.031 mg/L (≈ 0.088 µM); MBC [3]: 0.063 mg/L (≈ 0.179 µM) |
| COc1cc(C/C=N/NC(N)=S)ccc1O[C@@H]1O[C@H](COC(C)=O)[C@H](OC(C)=O)[C@H](OC(C)=O)[C@H]1OC(C)=O | – | – | – | – | – | – | – | – | – | – | – | IC50 (Rhodesain): 1.2 µM |
| O=C(O)c1cn(C2CC2)c2cc(N3CCNCC3)c(F)cc2c1=O [CIPROFLOXACIN] | 3.12 µM (≈ 1.04 µg/mL) | 3.12 µM (≈ 1.04 µg/mL) | – | 1.56 µM (≈ 0.517 µg/mL) | 1.56 µM (≈ 0.517 µg/mL) | 1.56 µM (≈ 0.517 µg/mL) | 1.56 µM (≈ 0.517 µg/mL) | – | – | – | 3.12 µM (≈ 1.04 µg/mL) | – |
| OC(Cn1cncn1)(Cn1cncn1)c1ccc(F)cc1F [FLUCONAZOLE] | – | – | 0.78 µM (≈ 0.239 µg/mL) | – | – | – | – | 1.56 µM (≈ 0.478 µg/mL) | 0.78 µM (≈ 0.239 µg/mL) | 0.78 µM (≈ 0.239 µg/mL) | – | – |
| O=c1[nH]cc(F)c(=O)[nH]1 [FLUOROURACIL] | – | – | – | – | – | – | – | – | – | – | – | IC50 (MDA-MB-231): 4.75 µM; IC50 (PC-3): 2.88 µM |
| Clc1ccc(COC(Cn2ccnc2)c2ccc(Cl)cc2Cl)c(Cl)c1 (stereo not drawn) [MICONAZOLE] | – | – | 1.56 µM (≈ 0.649 µg/mL) | – | – | – | – | 1.56 µM (≈ 0.649 µg/mL) | 3.12 µM (≈ 1.3 µg/mL) | 3.12 µM (≈ 1.3 µg/mL) | – | – |
| CN[C@H](CC(C)C)C(=O)N[C@H]1C(=O)N[C@@H](CC(N)=O)C(=O)N[C@H]2C(=O)N[C@H]3C(=O)N[C@H](C(=O)N[C@H](C(=O)O)c4cc(O)cc(O)c4-c4cc3ccc4O)[C@H](O)c3ccc(c(Cl)c3)Oc3cc2cc(c3O[C@@H]2O[C@H](CO)[C@@H](O)[C@H](O)[C@H]2O[C@H]2C[C@](C)(N)[C@H](O)[C@H](C)O2)Oc2ccc(cc2Cl)[C@H]1O [VANCOMYCIN] | 1.56 µM (≈ 2.26 µg/mL) | – | – | – | – | – | – | – | – | – | 3.12 µM (≈ 4.53 µg/mL) | – |
